# Measurements published in patent publication US20050282755A1, “Compositions having antimicrobial activity and uses thereof” (priority 2004, published 2005).
# Non-standard residues stand in square brackets, D forms with d. Residues, ends and D or L forms follow the SMILES beside them. *: point of attachment. Lauroyl = CCCCCCCCCCCC(=O)*; Decanoyl = CCCCCCCCCC(=O)*
# How the values were obtained:
# Format in all cases: cell-based
# [1] = test system: Staphylococcus aureus ATCC 29213; assay: MIC, NCCLS M7-A6 broth microdilution, cation-adjusted Mueller Hinton broth (Table 9, no superscript); details: ATCC 29213
# How it was run: (§1)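 Values come from a broth microdilution assay run in cation-adjusted Mueller Hinton broth with an inoculum of 5×10^5 to 1×10^6 CFU/milliliter, incubated overnight at 37° C and read as absence of visible turbidity.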
# [2] = test system: Escherichia coli ATCC 25922; assay: MIC, NCCLS M7-A6 broth microdilution (Table 9, no superscript); details: ATCC 25922
# How it was run: as §1
# [3] = test system: Pseudomonas aeruginosa ATCC 27853; assay: as above; details: ATCC 27853
# How it was run: as §1
# Salmonella dublin (Lane) = assay: as above
# How it was run: as §1
# [4] = test system: Staphylococcus epidermidis ATCC 12228; assay: as above; details: ATCC 12228
# How it was run: as §1
# [5] = test system: Propionibacterium acnes ATCC 6919; assay: MIC, agar dilution method NCCLS M11-A6, Brucella agar, anaerobic (Table 9, superscript c); details: ATCC 6919
# How it was run: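 MIC taken as the lowest peptide level giving no colonies on the plate. Plates were inoculated to 1.5×10^8 CFU/milliliter, then kept anaerobically at 37° C. for 48-96 hours; method follows NCCLS M11-A6.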
# [6] = test system: Candida albicans ATCC 18804; assay: MIC in yeasts, NCCLS M27-A2 broth microdilution, RPMI 1640 (Table 9, letter e); details: ATCC 18804
# How it was run: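 Plates incubated 24 to 48 hours at 37° C, with yeast seeded at 0.5×10^3–2.5×10^3 CFU/milliliter final in RPMI 1640 (glutamine, phenol red indicator). MIC was read as the lowest peptide concentration showing no visible growth.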
Compound,MIC S. aureus [1],MIC E. coli [2],MIC P. aeruginosa [3],MIC S. dublin (Salmonella dublin (Lane)),MIC S. epidermidis [4],MIC P. acnes [5],MIC C. albicans [6]
"CCCCCCCCCCCC(=O)NCCCC[C@@H](NC(=O)[C@@H](CCCNC(=N)N)NC(=O)[C@@H](CC(C)C)NC(=O)[C@@H](Cc1ccccc1)NC(=O)[C@@H](CC(N)=O)NC(=O)[C@@H](CCCNC(=N)N)NC(=O)[C@@H](C)NC(=O)[C@H](NC(=O)[C@@H](CC(=O)O)NC(=O)[C@@H](CCCNC(=N)N)NC(=O)[C@@H](Cc1c[nH]c2ccccc12)NC(=O)[C@@H](CCCNC(=N)N)NC(=O)[C@@H](CO)NC(=O)[C@H](N)CCCNC(=N)N)C(C)C)C(N)=O [Peptide 195, H2N-rsrwrdvarnflrk(Lauryl)-NH2] (H-[dR][dS][dR][dW][dR][dD][dV][dA][dR][dN][dF][dL][dR][dK](Lauroyl)-NH2)",2 mg/L,4 mg/L,4 mg/L,4 mg/L,1 mg/L,8c ug/mL,8e ug/mL
"CCCCCCCCCC(=O)NCCCC[C@@H](NC(=O)[C@@H](CCCNC(=N)N)NC(=O)[C@@H](CCSC)NC(=O)[C@@H](Cc1ccccc1)NC(=O)[C@@H](CC(N)=O)NC(=O)[C@@H](CCCNC(=N)N)NC(=O)[C@@H](C)NC(=O)[C@H](NC(=O)[C@@H](CC(=O)O)NC(=O)[C@@H](CCCNC(=N)N)NC(=O)[C@@H](Cc1c[nH]c2ccccc12)NC(=O)[C@@H](CCCNC(=N)N)NC(=O)[C@@H](CO)NC(=O)[C@H](N)CCCNC(=N)N)C(C)C)C(N)=O [Peptide 199, H2N-rsrwrdvarnfmrk(Decanyl)-NH2] (H-[dR][dS][dR][dW][dR][dD][dV][dA][dR][dN][dF][dM][dR][dK](Decanoyl)-NH2)",2 mg/L,4 mg/L,4 mg/L,8 mg/L,1 mg/L,8c ug/mL,32e ug/mL
"CCCCCCCCCC(=O)N[C@H](CCCNC(=N)N)C(=O)N[C@H](CO)C(=O)N[C@H](CCCNC(=N)N)C(=O)N[C@H](Cc1c[nH]c2ccccc12)C(=O)N[C@H](CCCNC(=N)N)C(=O)N[C@H](CC(=O)O)C(=O)N[C@@H](C(=O)N[C@H](C)C(=O)N[C@H](CCCNC(=N)N)C(=O)N[C@H](CC(N)=O)C(=O)N[C@H](Cc1ccccc1)C(=O)N[C@H](CC(C)C)C(=O)N[C@H](CCCNC(=N)N)C(N)=O)C(C)C [Peptide 253, Decanyl-rsrwrdvarnflr-NH2] (Decanoyl-[dR][dS][dR][dW][dR][dD][dV][dA][dR][dN][dF][dL][dR]-NH2)",2 mg/L,2 mg/L,4 mg/L,8 mg/L,1 mg/L,2c ug/mL,16e ug/mL
"CCCCCCCCCCCC(=O)N[C@H](CCCNC(=N)N)C(=O)N[C@H](CCCCN)C(=O)N[C@H](CCCNC(=N)N)C(=O)N[C@H](Cc1c[nH]c2ccccc12)C(=O)N[C@H](CCCNC(=N)N)C(=O)N[C@H](CCCCN)C(=O)N[C@@H](C(=O)N[C@H](C)C(=O)N[C@H](CCCNC(=N)N)C(=O)N[C@H](CCCCN)C(=O)N[C@H](Cc1ccccc1)C(=O)N[C@H](CC(C)C)C(=O)N[C@H](CCCNC(=N)N)C(N)=O)C(C)C [Peptide 223, Lauryl-rkrwrkvarkflr-NH2] (Lauroyl-[dR][dK][dR][dW][dR][dK][dV][dA][dR][dK][dF][dL][dR]-NH2)",4 mg/L,16 mg/L,8 mg/L,32 mg/L,2 mg/L,>64c ug/mL,4e ug/mL
"CCCCCCCCCC(=O)NCCCC[C@H](NC(=O)[C@H](CCCNC(=N)N)NC(=O)[C@H](CCSC)NC(=O)[C@H](Cc1ccccc1)NC(=O)[C@H](CC(N)=O)NC(=O)[C@H](CCCNC(=N)N)NC(=O)[C@H](C)NC(=O)[C@@H](NC(=O)[C@H](CC(=O)O)NC(=O)[C@H](CCCNC(=N)N)NC(=O)[C@H](Cc1c[nH]c2ccccc12)NC(=O)[C@H](CCCNC(=N)N)NC(=O)[C@H](CO)NC(=O)[C@@H](N)CCCNC(=N)N)C(C)C)C(N)=O [Peptide 185, H2N-RSRWRDVARNFMRK(Decanyl)-NH2] (H-RSRWRDVARNFMRK(Decanoyl)-NH2)",4 mg/L,8 mg/L,16 mg/L,16 mg/L,1 mg/L,32c ug/mL,32e ug/mL
"CCCCCCCCCCCC(=O)N[C@@H](CCCNC(=N)N)C(=O)N[C@@H](CO)C(=O)N[C@@H](CCCNC(=N)N)C(=O)N[C@@H](Cc1c[nH]c2ccccc12)C(=O)N[C@@H](CCCNC(=N)N)C(=O)N[C@@H](CC(=O)O)C(=O)N[C@H](C(=O)N[C@@H](C)C(=O)N[C@@H](CCCNC(=N)N)C(=O)N[C@@H](CC(N)=O)C(N)=O)C(C)C [Peptide 100, Lauryl-RSRWRDVARN-NH2] (Lauroyl-RSRWRDVARN-NH2)",8 mg/L,>64 mg/L,>64 mg/L,>64 mg/L,16 mg/L,>64c ug/mL,32e ug/mL
"CCCCCCCCCCCC(=O)N[C@@H](CCCNC(=N)N)C(=O)N[C@@H](CO)C(=O)N[C@@H](CCCNC(=N)N)C(=O)N[C@@H](Cc1c[nH]c2ccccc12)C(=O)N[C@@H](CCCNC(=N)N)C(=O)N[C@@H](CC(=O)O)C(=O)N[C@H](C(=O)N[C@@H](C)C(=O)N[C@@H](CCCNC(=N)N)C(=O)N[C@@H](CC(N)=O)C(=O)N[C@@H](Cc1c[nH]c2ccccc12)C(=O)N[C@@H](CCSC)C(=O)N[C@@H](CCCNC(=N)N)C(N)=O)C(C)C [Peptide 139, Lauryl-RSRWRDVARNWMR-NH2] (Lauroyl-RSRWRDVARNWMR-NH2)",4 mg/L,8 mg/L,8 mg/L,8 mg/L,2 mg/L,16c ug/mL,8e ug/mL
"CCCCCCCCCCCC(=O)N[C@@H](CCCNC(=N)N)C(=O)N[C@@H](CO)C(=O)N[C@@H](CCCNC(=N)N)C(=O)N[C@@H](Cc1c[nH]c2ccccc12)C(=O)N[C@@H](CCCNC(=N)N)C(=O)N[C@@H](CC(=O)O)C(=O)N[C@@H](Cc1c[nH]c2ccccc12)C(=O)N[C@@H](C)C(=O)N[C@@H](CCCNC(=N)N)C(=O)N[C@@H](CC(N)=O)C(=O)N[C@@H](Cc1ccccc1)C(=O)N[C@@H](CCSC)C(=O)N[C@@H](CCCNC(=N)N)C(N)=O [Peptide 140, Lauryl-RSRWRDWARNFMR-NH2] (Lauroyl-RSRWRDWARNFMR-NH2)",2 mg/L,4 mg/L,8 mg/L,4 mg/L,2 mg/L,16c ug/mL,2e ug/mL
"CCCCCCCCCCCC(=O)NCCCC[C@H](NC(=O)[C@H](CCCNC(=N)N)NC(=O)[C@H](CC(C)C)NC(=O)[C@H](Cc1ccccc1)NC(=O)[C@H](CC(N)=O)NC(=O)[C@H](CCCNC(=N)N)NC(=O)[C@H](C)NC(=O)[C@@H](NC(=O)[C@H](CC(=O)O)NC(=O)[C@H](CCCNC(=N)N)NC(=O)[C@H](Cc1c[nH]c2ccccc12)NC(=O)[C@H](CCCNC(=N)N)NC(=O)[C@H](CO)NC(=O)[C@@H](N)CCCNC(=N)N)C(C)C)C(N)=O [Peptide 181, H2N-RSRWRDVARNFLRK(Lauryl)-NH2] (H-RSRWRDVARNFLRK(Lauroyl)-NH2)",4 mg/L,4 mg/L,4 mg/L,16 mg/L,1 mg/L,64c ug/mL,8e ug/mL
"CCCCCCCCCCCC(=O)N[C@H](CCCNC(=N)N)C(=O)N[C@H](CC(=O)O)C(=O)N[C@@H](C(=O)N[C@H](C)C(=O)N[C@H](CCCNC(=N)N)C(=O)N[C@H](CC(N)=O)C(=O)N[C@H](Cc1ccccc1)C(=O)N[C@H](CCSC)C(=O)N[C@H](CCCNC(=N)N)C(N)=O)C(C)C [Peptide 128, Lauryl-rdvarnfmr-NH2] (Lauroyl-[dR][dD][dV][dA][dR][dN][dF][dM][dR]-NH2)",16 mg/L,32 mg/L,32 mg/L,32 mg/L,8 mg/L,16c ug/mL,32e ug/mL
CCCCCCCCCCCC(=O)N[C@H](C(=O)N[C@@H](CCCNC(=N)N)C(=O)N[C@H](C(=O)N[C@@H](C)C(=O)N[C@@H](CCCNC(=N)N)C(=O)N[C@H](C(=O)NCC(=O)N[C@@H](CCCNC(=N)N)C(=O)N[C@@H](CO)C(=O)N[C@@H](CCCNC(=N)N)C(=O)N[C@@H](Cc1c[nH]c2ccccc12)C(=O)N[C@@H](CCCNC(=N)N)C(=O)N[C@@H](CC(=O)O)C(=O)N[C@@H](Cc1c[nH]c2ccccc12)C(=O)N[C@@H](C)C(=O)N[C@@H](CCCNC(=N)N)C(=O)N[C@@H](CC(N)=O)C(=O)N[C@@H](Cc1ccccc1)C(=O)N[C@@H](CCSC)C(=O)N[C@@H](CCCNC(=N)N)C(N)=O)[C@@H](C)O)C(C)C)[C@@H](C)O [Peptide 70] (Lauroyl-TRVARTGRSRWRDWARNFMR-NH2),8 mg/L,4 mg/L,8 mg/L,32 mg/L,1 mg/L,64c ug/mL,8e ug/mL
